Experimental findings from patent US20100168054A1, “Functionalized Beta 1,6 Glucosamine Disaccharides and Process for Their Preparation” (OM PHARMA, priority 2006, published 2010) are described below.

Entries after “also recorded” stand apart in the source; their conditions may differ.

The subject of experiment [1] is human peripheral blood mononuclear cells (PBMC). As to the kind of experiment: IL-6 secretion by human PBMC (ELISA). The class given is cell-based. To be noted: for IL6: 24 h; for IL-6 secretion (in words): 1, 5, 20 μg/ml. The procedure: Peripheral blood from healthy donors (Centre de transfusion, Hôpital Universitaire, Geneva) was centrifuged to get the buffy coat. The buffy coat was mixed with Hanks' balanced saline solution (HBSS, Sigma, Buchs, Switzerland), layered over Ficoll Paque Plus (Amersham Pharmacia) to 1.077 g/mL and centrifuged (2800 rpm, 20° C., 25 min). Cells harvested from the interphase were washed twice in HBSS at 800 rpm for 15 min at room temperature and the pelleted cells were resuspended in HBSS. The cell counts were performed using a Neubauer cell. All cell cultures were performed in RPMI-1640 medium supplemented with penicillin (100 U/mL), streptomycin (100 μg/mL), L-glutamine (2 mmol/L) and 10% fetal calf serum (FCS), all obtained from Sigma. For in vitro stimulation, the cells were cultured at a concentration of 1×10^6 viable cells/well.
PBMC were incubated at 37° C. and under 5% CO2 atmosphere with the controls (see below) and with the products of the invention at 1, 5, and 20 μg/mL for IL-6, and at 0.2, 2, and 20 μg/mL for TNF-α secretion. Medium: RPMI alone.
The surpernatants of the cultures were harvested after 24 h and the concentration of IL-6 and TNF-α were measured by an enzyme-linked immunosorbent assay (ELISA) (Human IL-6 and TNF-α ELISA Set, BD OptEIA, San Diego, USA), according to the manufacturer instructions. The detection limits were 10 and 8 pg/mL respectively.
PBMC are incubated at 37° C. and under 5% CO2 atmosphere with the products of the invention.
The supernatants of the cultures are harvested after 24 h and the concentration of IL-6 was measured by an enzyme-linked immunosorbent assay (ELISA) (Human IL-6 ELISA Set, BD OptEIA, San Diego, USA), according to the manufacturer instructions. The detection limit was 10 pg/mL.

Experiment [2] has as its system THP1-Blue cells (express naturally both TLR2 and TLR4). The experiment can be described thus: THP1-Blue NF-κB/AP-1-inducible SEAP reporter. The class given is cell-based, human. As to conditions: for Optical density read at 625 nm, mean of duplicates: 48 h. The procedure: A first series of experiment was performed on THP-1 cells, which express naturally both TLR2 and TLR4. THP-1 cells are human peripheral blood monocytic cells. Monocytes play a key role in innate immunity and express most TLRs at various levels. As for the primary cells, THP-1 cells activate NF-κB and other transcription factors in response to TLR ligands
To facilitate analysis of TLR response in monocytes, InvivoGen (Toulouse, France) provides THP-1 clones stably transfected with an NF-κB-inducible reporter system, called THP1-Blue™. THP-1 Blue cells were stably transfected with a reporter plasmid expressing a secreted embryonic alkaline phosphatase (SEAP) gene under the control of a promoter inducible by several transcription factors such as NF-κB and AP-1. Upon TLR stimulation, THP1-Blue™ cells activate transcription factors and subsequently the secretion of SEAP which is easily detectable when using QUANTI-Blue\u2122a medium that turns purple/blue in the presence of SEAP.
The cells were stimulated with the controls and compounds of the invention according to manufacturer's instructions. Results: Increased OD at 625 Nm after 48 Hours: The results for the controls (negative=LPS K12CD25 ultrapure, a TLR4 agonist; and PAM3CSK4=positive, a TLR2 agonist) are provided in the table below. The results (expressed as OD of arbitrary units) show the mean values (from duplicate measures) of Optical density read at 625 nm, 48 h after stimulation at 37° C. with the controls (up to 1000 ng/ml): […]

The next experiment concerns the target T1, TLR4 (Homo sapiens, UniProt O00206+Q9Y6Y9).
T1 construct: expressed in transfected cells; host or cells: HEK293
As to the kind of experiment: HEK-MD2-TLR4-CD14 IL-8 secretion. As to conditions: 24 h. Type of experiment: cell-based. The text has this: (§1) The HEK293 cell line was chosen for its null or low basal expression of the TLR genes. These cells enable efficient monitoring of TLR activity using ELISA analysis such as IL-8 titration or reporter-based systems that monitor TLR-induced NF-κB activation. HEK-TLR2 cells (Invivogen, Toulouse, France) are engineered HEK293 cells stably transfected with multiple genes from the TLR2 pathway that include TLR2 and genes participating in the recognition or involved in the signaling cascade. These cells secrete IL-8 after TLR2 stimulation. The experiments were performed according to manufacturers' instructions. Briefly, 2×10^4 cells/well (200 ul RPMI) are incubated at 37° C. during 3 days (5% CO2). The medium is removed, and 90 ul RPMi+5% FCS is added to the wells Then the agonists and controls are added (10 ul/well). The cells return to the incubator for 24 hours. The supernatants are collected and the IL-8 ELISA is performed according to manufacturer's instructions
HEK-MD2-TLR4-CD14 are highly sensitive to LPS. They were obtained by stable transfection of HEK293 cells with the TLR4, MD2 and CD14 genes and an NF-κB-inducible reporter system. They secrete IL-8. We used the same experimental procedure as for the other HEK cell lines described above.

The next experiment addresses T2, TLR2 and CD14 (Homo sapiens, UniProt O60603).
T2 construct: expressed in transfected cells; host or cells: HEK (HEK-TLR2-CD14 cell line)
The experiment can be described thus: HEK-TLR2-CD14 IL-8 secretion. As to conditions: for IL-8 secretion, mean: 24 h. The class given is cell-based.
Excerpt: as §1, with “manufacturer's instructions These preliminary results were confirmed in another cell line expressing concomitantly TLR2 and CD14. The procedure used is similar to the one described just above.” for “manufacturer's instructions”

T2 sequence (O60603 21-784): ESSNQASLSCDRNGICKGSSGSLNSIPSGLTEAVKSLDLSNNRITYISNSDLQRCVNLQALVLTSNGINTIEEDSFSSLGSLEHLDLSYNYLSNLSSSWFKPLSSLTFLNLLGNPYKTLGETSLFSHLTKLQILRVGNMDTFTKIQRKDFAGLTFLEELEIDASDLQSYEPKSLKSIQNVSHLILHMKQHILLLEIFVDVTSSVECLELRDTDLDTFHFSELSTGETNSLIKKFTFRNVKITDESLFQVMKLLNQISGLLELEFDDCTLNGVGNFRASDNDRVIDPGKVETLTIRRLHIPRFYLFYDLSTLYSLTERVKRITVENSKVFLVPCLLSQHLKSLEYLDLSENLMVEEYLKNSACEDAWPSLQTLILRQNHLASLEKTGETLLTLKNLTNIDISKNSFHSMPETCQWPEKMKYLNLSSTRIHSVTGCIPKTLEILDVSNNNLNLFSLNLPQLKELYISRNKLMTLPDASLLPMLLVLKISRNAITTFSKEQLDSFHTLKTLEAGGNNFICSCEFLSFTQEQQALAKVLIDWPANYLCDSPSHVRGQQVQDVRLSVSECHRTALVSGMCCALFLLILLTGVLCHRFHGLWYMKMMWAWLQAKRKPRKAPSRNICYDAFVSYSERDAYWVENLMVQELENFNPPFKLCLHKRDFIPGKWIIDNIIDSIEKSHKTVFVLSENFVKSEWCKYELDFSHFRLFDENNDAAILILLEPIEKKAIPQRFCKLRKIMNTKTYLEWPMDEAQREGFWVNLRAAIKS
T1 sequence (O00206 24-839): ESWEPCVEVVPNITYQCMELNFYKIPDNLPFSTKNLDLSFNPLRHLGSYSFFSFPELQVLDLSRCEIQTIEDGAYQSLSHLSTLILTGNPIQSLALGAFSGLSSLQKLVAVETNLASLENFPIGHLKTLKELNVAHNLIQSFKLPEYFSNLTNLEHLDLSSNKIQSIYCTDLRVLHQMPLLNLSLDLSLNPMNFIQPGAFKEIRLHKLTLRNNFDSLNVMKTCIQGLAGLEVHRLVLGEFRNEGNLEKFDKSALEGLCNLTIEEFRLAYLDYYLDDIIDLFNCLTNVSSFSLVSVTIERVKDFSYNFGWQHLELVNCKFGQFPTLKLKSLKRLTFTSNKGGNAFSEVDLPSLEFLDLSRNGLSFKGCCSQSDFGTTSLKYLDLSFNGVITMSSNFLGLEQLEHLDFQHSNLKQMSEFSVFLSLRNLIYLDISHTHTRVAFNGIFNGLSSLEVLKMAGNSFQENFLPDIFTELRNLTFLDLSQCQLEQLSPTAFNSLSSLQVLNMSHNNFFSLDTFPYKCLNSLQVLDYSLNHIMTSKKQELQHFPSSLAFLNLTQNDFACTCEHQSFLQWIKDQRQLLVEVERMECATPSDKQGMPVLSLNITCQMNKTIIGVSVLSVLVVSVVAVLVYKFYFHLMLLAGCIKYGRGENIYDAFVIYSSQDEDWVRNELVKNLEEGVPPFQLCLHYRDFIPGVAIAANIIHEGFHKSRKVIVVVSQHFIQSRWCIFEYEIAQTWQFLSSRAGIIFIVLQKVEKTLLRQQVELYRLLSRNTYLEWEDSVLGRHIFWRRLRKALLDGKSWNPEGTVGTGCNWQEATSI
T1 sequence (Q9Y6Y9 17-160 limits assumed): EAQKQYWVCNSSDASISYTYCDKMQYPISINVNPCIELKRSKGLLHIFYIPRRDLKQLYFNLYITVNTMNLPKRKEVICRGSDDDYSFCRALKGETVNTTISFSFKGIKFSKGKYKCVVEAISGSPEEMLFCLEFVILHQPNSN

For the molecule `CCCCCCCCCCCC(=O)O[C@H](CCCCCCCCCCC)CC(=O)NC1C(OCC2OC(OP(=O)(O)O)C(NC(=O)C[C@H](O)CCCCCCCCCCC)C(O)C2O)OC(CO)C(OP(=O)(O)O)C1O` (stereo partly drawn) [compound 1b, 2-Deoxy-6-O-[2-deoxy-4-O-(dihydroxyphosphoryl)-2-[(R)-3-dodecanoyloxytetradecanoylamino]-β-D-glucopyranosyl]-2-[(R)-3-hydroxytetradecanoylamino]-α-D-glucopyranosyl dihydrogenophosphate], the IL6 was 20.2 pg/mL in experiment [1] (1 μg/ml), 57.1 pg/mL in experiment [1] (5 μg/ml) and 225.5 pg/mL in experiment [1] (20 μg/ml). In addition, the “IL-6 secretion (in words)” value in experiment [1] is recorded as “higher levels of IL-6; also recorded: able to induce IL-6 secretion”.

Regarding `CCCCCCCCCCCC(=O)O[C@H](CCCCCCCCCCC)CC(=O)N[C@H]1[C@H](OC[C@H]2O[C@H](O)[C@H](NC(=O)C[C@H](O)CCCCCCCCCCC)[C@@H](O)[C@@H]2O)O[C@H](CO)[C@@H](OP(=O)(O)O)[C@@H]1O` [compound 16, 2-Deoxy-6-O-[2-deoxy-4-O-(dihydroxyphosphoryl)-2-[(R)-3-dodecanoyloxytetradecanoylamino]-β-D-glucopyranosy]-2-[(R)-3-hydroxytetradecanoylamino]-α-D-glucopyranose], in experiment [2], the “activation of THP-1 cells (in words)” value is “weaker”. Also, the “Optical density read at 625 nm, mean of duplicates” value (from here on “Optical density read at 625 nm”) in experiment [2] (14 ng/ml) was found to be 0.15 OD; in experiment [2] (41 ng/ml), 0.13 OD; in experiment [2] (124 ng/ml), 0.15 OD; in experiment [2] (370 ng/ml), 0.16 OD; in experiment [2] (1111 ng/ml), 0.17 OD; in experiment [2] (3333 ng/ml), 0.18 OD. Moreover, in experiment [2] (10000 ng/ml), the “Optical density read at 625 nm” value was determined as 0.22 OD. The IL6 turned out to be 81.1 pg/mL in experiment [1] (1 μg/ml), 473.3 pg/mL in experiment [1] (5 μg/ml) and 1348.2 pg/mL in experiment [1] (20 μg/ml). The “IL-6 secretion (in words)” value in experiment [1] is on record as “able to induce IL-6 secretion”. Further, the “IL-6 induced” value in experiment [1] (up to, doses to 20 μg/ml) is listed as “up to 1348 μg/ml”. The “IL-8 secretion, mean” value amounted to 1.75 pg/mL at TLR4 (14 ng/ml); 1.68 pg/mL at TLR4 (41 ng/ml); 1.62 pg/mL on TLR4 (124 ng/ml); 1.66 pg/mL at TLR4 (370 ng/ml); 1.60 pg/mL at TLR4 (1111 ng/ml); 1.63 pg/mL at TLR4 (3333 ng/ml). In addition, the “IL-8 secretion, mean” value worked out at 1.90 pg/mL on TLR4 (10000 ng/ml); 0.03 pg/mL on TLR2 and CD14 (14 ng/ml); 0.00 pg/mL on TLR2 and CD14 (41 ng/ml); 0.03 pg/mL at TLR2 and CD14 (124 ng/ml); 0.01 pg/mL on TLR2 and CD14 (370 ng/ml); 0.06 pg/mL at TLR2 and CD14 (1111 ng/ml). Also, the “IL-8 secretion, mean” value on TLR2 and CD14 (3333 ng/ml) stood at 0.13 pg/mL; on TLR2 and CD14 (10000 ng/ml), 0.22 pg/mL.

Take `CCCCCCCCCCCC(=O)O[C@H](CCCCCCCCCCC)CC(=O)N[C@H]1[C@H](OC[C@H]2O[C@H](OCCOP(=O)(O)O)[C@H](NC(=O)C[C@H](O)CCCCCCCCCCC)[C@@H](O)[C@@H]2O)O[C@H](CO)[C@@H](OP(=O)(O)O)[C@@H]1O` [compound 33, 2-(Phosphonooxy)ethyl-2-Deoxy-6-O-[2-deoxy-4-O-(dihydroxyphosphoryl)-2-[(R)-3-dodecanoyloxytetradecanoylamino]-β-D-glucopyranosyl]-2-[(R)-3-hydroxytetradecanoylamino]-α-D-glucopyranoside]: in experiment [2], the “activation of THP-1 cells (in words)” value was “weaker”. Further, the “Optical density read at 625 nm” value in experiment [2] (14 ng/ml) amounted to 0.13 OD; in experiment [2] (41 ng/ml) it was 0.12 OD; in experiment [2] (124 ng/ml), 0.13 OD; in experiment [2] (370 ng/ml), 0.16 OD; in experiment [2] (1111 ng/ml) it was 0.19 OD; in experiment [2] (3333 ng/ml), 0.25 OD. In addition, in experiment [2] (10000 ng/ml), the “Optical density read at 625 nm” value is 0.35 OD. In addition, the “IL-8 secretion, mean” value on TLR4 (14 ng/ml) was determined as 1.83 pg/mL; at TLR4 (41 ng/ml), 1.79 pg/mL; on TLR4 (124 ng/ml), 1.65 pg/mL; on TLR4 (370 ng/ml) it was 1.64 pg/mL; at TLR4 (1111 ng/ml), 1.58 pg/mL; at TLR4 (3333 ng/ml) it was 1.62 pg/mL. Besides, the “IL-8 secretion, mean” value at TLR4 (10000 ng/ml) was 1.78 pg/mL; on TLR2 and CD14 (14 ng/ml), 0.10 pg/mL; at TLR2 and CD14 (41 ng/ml), 0.03 pg/mL; at TLR2 and CD14 (124 ng/ml), 0.17 pg/mL; on TLR2 and CD14 (370 ng/ml), 0.19 pg/mL; on TLR2 and CD14 (1111 ng/ml) it was 0.52 pg/mL. Also, the “IL-8 secretion, mean” value on TLR2 and CD14 (3333 ng/ml) was determined as 1.49 pg/mL; on TLR2 and CD14 (10000 ng/ml) it was 4.24 pg/mL. The “activation of IL-8 secretion via TLR2 (in words)” value on TLR2 and CD14 (HEK-TLR2-CD14) is given as “able to activate IL-8 secretion via TLR2”.
